Data reported in US10981932B2, “Macrocyclic indole derivatives” (Bayer Aktiengesellschaft, priority 2016, dated 2021).

Key:
SUDHL5 [1] = test: Induction of caspase-3/7 activity (Caspase-Glo 3/7), SUDHL5; type: cell-based; conditions: Homo sapiens, SU-DHL-5, 3 h, caspase-3/7 induction, SUDHL5 cells, 3 h treatment; median
Procedure, shortened: (§1)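 Apoptosis induction measured as caspase-3/7 activity (Caspase-Glo 3/7) in DLBCL lines after 3 h treatment at 37 °C; EC50 derived relative to the reference compound's maximal induction, with C0 fixed at 1.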

SUDHL10 [2] = test: Induction of caspase-3/7 activity (Caspase-Glo 3/7), SUDHL10; type: cell-based; conditions: Homo sapiens, SU-DHL10, 3 h, caspase-3/7 induction, SUDHL10 cells, 3 h treatment; median
Procedure, shortened: as §1

SUDHL10 [3] = test: Induction of cytotoxicity (CellTiter-Glo, 5 h), SUDHL10; conditions: Homo sapiens, SU-DHL10, 5 h, read-out: Cytotox SUDHL10 [M] (median), SUDHL10 cells, cytotoxicity induction, CellTiter-Glo, 5 h, median
SUDHL10 [4] = test: Anti-proliferative effect (CellTiter-Glo, 72 h), SUDHL10; type: cell-based; conditions: Homo sapiens, SU-DHL10, 72 h, SUDHL10 cells, antiproliferation, 72 h, median, read-out: Antiproli SUDHL10 [M] (median)
Procedure, shortened: (§2)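 Luminescence from CellTiter-Glo, read 10 min after reagent addition, reports viable cell content after 72 h of compound treatment at 37 °C. A reference plate read at day 0 gives the starting baseline.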

A2780 = test: Anti-proliferative effect (CellTiter-Glo, 72 h), A2780; type: cell-based; conditions: Homo sapiens, A2780, 72 h, A2780 cells, median, read-out: IC50 antiproliferation assay A2780 [M] (median)
Procedure, shortened: as §2

SUDHL5 [5] = test: Induction of cytotoxicity (CellTiter-Glo, 5 h), SUDHL5; conditions: Homo sapiens, SU-DHL-5, 5 h, read-out: Cytotox SUDHL5 [M] (median), SUDHL5 cells, cytotoxicity induction, CellTiter-Glo, 5 h, median
SUDHL5 [6] = test: Anti-proliferative effect (CellTiter-Glo, 72 h), SUDHL5; type: cell-based; conditions: Homo sapiens, SU-DHL-5, 72 h, SUDHL5 cells, antiproliferation, 72 h, median, read-out: Antiproli SUDHL5 [M] (median)
Procedure, shortened: as §2

MCL-1 = MCL-1 (Homo sapiens, UniProt Q07820); test: Protein-protein interaction assay MCL-1/Noxa BH3 peptide (MCL-1 assay), TR-FRET; type: binding; conditions: MBP-MCL-1 / Noxa BH3-derived peptide, median
Chain of MCL-1 (Q07820 whole entry): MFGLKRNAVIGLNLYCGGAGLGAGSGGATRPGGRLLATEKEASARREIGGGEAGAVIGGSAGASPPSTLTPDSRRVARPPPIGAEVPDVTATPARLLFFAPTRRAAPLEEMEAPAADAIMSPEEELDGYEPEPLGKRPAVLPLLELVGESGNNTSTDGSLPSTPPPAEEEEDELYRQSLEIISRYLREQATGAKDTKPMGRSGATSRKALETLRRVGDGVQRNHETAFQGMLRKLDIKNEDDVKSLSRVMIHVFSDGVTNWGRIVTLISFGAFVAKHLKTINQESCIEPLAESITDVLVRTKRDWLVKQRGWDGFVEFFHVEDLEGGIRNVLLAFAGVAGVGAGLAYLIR
Procedure, shortened: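 Inhibition values were normalized between DMSO controls with all reagents and controls lacking MCL-1. The binding competition used 1 nM MBP-MCL-1 in pH 7 Tris buffer containing 50 mM KF and 100 mM NaCl, with a 10 min compound preincubation at 22 °C.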

EC50 (SUDHL5 [1]) | EC50 (SUDHL10 [2]) | IC50 (SUDHL10 [4]) | IC50 (A2780) | IC50 (SUDHL5 [6]) | IC50 (MCL-1) | SMILES | IC50 (SUDHL10 [3]) | IC50 (SUDHL5 [5])
25 µM | > 33 µM | 1.9e-05 M | > 3.3e-05 M | 3.15e-05 M | 0.0451 µM | CC(=O)N(C)Cc1nn(C)c2c1-c1cccc3c(CCCOc4cccc5ccccc45)c(C(=O)O)n(c13)CCCCOC2 (racemic) [Example 342, (rac)-3-{[acetyl(methyl)amino]methyl}-1-methyl-7-[3-(naphthalen-1-yloxy)propyl]-1,10,11,12,13,15-hexahydropyrazolo[4′,3′:9,10][1,6]oxazacycloundecino[8,7,6-hi]indole-8-carboxylic Acid] | > 3.3e-05 M | > 3.3e-05 M
25.1 µM | 32.4 µM | 3.54e-06 M | 2.32e-05 M | 9.09e-06 M | 0.0142 µM | Cn1nc(COCc2ccc(C(N)=O)cc2)c2c1COCCCCn1c(C(=O)O)c(CCCOc3cccc4ccccc34)c3cccc-2c31 (racemic) [Example 346, (rac)-3-{[(4-carbamoylbenzyl)oxy]methyl}-1-methyl-7-[3-(naphthalen-1-yloxy)propyl]-1,10,11,12,13,15-hexahydropyrazolo[4′,3′:9,10][1,6]oxazacycloundecino[8,7,6-hi]indole-8-carboxylic Acid] | > 3.3e-05 M | 2.02e-05 M
31 µM | > 33 µM | 1.67e-05 M | > 3.3e-05 M | 1.86e-05 M | 0.0819 µM | COc1ccc2c(CCCOc3cccc4ccccc34)c(C(=O)O)n3c2c1-c1c(nn(C)c1C)COCCCC3 (racemic) [Example 349, (rac)-4-methoxy-2,3-dimethyl-7-[3-(naphthalen-1-yloxy)propyl]-2,10,11,12,13,15-hexahydropyrazolo[4′,3′:9,10][1,6]oxazacycloundecino[8,7,6-hi]indole-8-carboxylic Acid] | > 3.3e-05 M | 2.43e-05 M
> 33 µM | > 33 µM | > 3.3e-05 M | > 3.3e-05 M | > 3.3e-05 M | 0.075 µM | CN1CCN(Cc2c3c(nn2C)COCCCCn2c(C(=O)O)c(CCCOc4cccc5ccccc45)c4cccc-3c42)CC1 (racemic) [Example 359, (rac)-2-methyl-3-[(4-methylpiperazin-1-yl)methyl]-7-[3-(naphthalen-1-yloxy)propyl]-2,10,11,12,13,15-hexahydropyrazolo[4′,3′:9,10][1,6]oxazacycloundecino[8,7,6-hi]indole-8-carboxylic Acid] | > 3.3e-05 M | > 3.3e-05 M
32.6 µM | > 33 µM | 1.44e-05 M | > 3.3e-05 M | 2.12e-05 M | 0.0198 µM | CN1CCCn2c(C(=O)O)c(CCCOc3cccc4ccccc34)c3cccc(c32)-c2c(nn3c2OCCC3)C1 (racemic) [Example 360, (rac)-7-methyl-1-[3-(naphthalen-1-yloxy)propyl]-5,6,7,8,12,13-hexahydro-4H,11H-[1,3]oxazino[3″,2″:1′,5′]pyrazolo[3′,4′:7,8][1,5]diazecino[9,10,1-hi]indole-2-carboxylic Acid] | > 3.3e-05 M | > 3.3e-05 M
10.1 µM | > 33 µM | 7.7e-06 M | > 3.3e-05 M | 3.66e-06 M | 0.0248 µM | CN1CCCn2c(C(=O)O)c(CCCOc3cccc4ccccc34)c3cccc(c32)-c2c(nn3c2CCCC3)C1 (racemic) [Example 361, (rac)-7-methyl-1-[3-(naphthalen-1-yloxy)propyl]-5,6,7,8,11,12,13,14-octahydro-4H-pyrido[1″,2″:1′,5′]pyrazolo[3′,4′:7,8][1,5]diazecino[9,10,1-hi]indole-2-carboxylic Acid] | 1.84e-05 M | 1.09e-05 M
20.2 µM | 23.1 µM | 1.13e-05 M | 1.54e-05 M | 1.14e-05 M | 0.042 µM | Cc1ccc2c(C(C)CCOc3cccc4c3CCCC4)c(C(=O)O)n3c2c1-c1c(nn(C)c1C)COCCCC3 (racemic) [Example 363, 11,12,13-trimethyl-1-(4-((5,6,7,8-tetrahydronaphthalen-1-yl)oxy)butan-2-yl)-4,5,6,7,9,11-hexahydropyrazolo[4′,3′:9,10][1,6]oxaazacycloundecino[8,7,6-hi]indole-2-carboxylic Acid (Mixture of Stereoisomers)] | 2.97e-05 M | 1.68e-05 M

The remaining lines, values behind:

SMILES | EC50 (SUDHL5 [1]) | EC50 (SUDHL10 [2]) | IC50 (SUDHL10 [4]) | IC50 (A2780) | IC50 (SUDHL5 [6]) | IC50 (MCL-1) | IC50 (SUDHL10 [3]) | IC50 (SUDHL5 [5])
Cn1nc(CN2CCCC2=O)c2c1COCCCCn1c(C(=O)O)c(CCCOc3cccc4ccccc34)c3cccc-2c31 (racemic) [Example 328, (rac)-1-methyl-7-[3-(naphthalen-1-yloxy)propyl]-3-[(2-oxopyrrolidin-1-yl)methyl]-1,10,11,12,13,15-hexahydropyrazolo[4′,3′:9,10][1,6]oxazacycloundecino[8,7,6-hi]indole-8-carboxylic Acid] | > 33 µM | > 33 µM | 1.9e-05 M | > 3.3e-05 M | 1.87e-05 M | 0.0467 µM | > 3.3e-05 M | > 3.3e-05 M
CN(C)Cc1nn(C)c2c1-c1cccc3c(CCCOc4cccc5ccccc45)c(C(=O)O)n(c13)CCCCOC2 (racemic) [Example 331, (rac)-3-[(dimethylamino)methyl]-1-methyl-7-[3-(naphthalen-1-yloxy)propyl]-1,10,11,12,13,15-hexahydropyrazolo[4′,3′:9,10][1,6]oxazacycloundecino[8,7,6-hi]indole-8-carboxylic Acid] | > 33 µM | > 33 µM | > 3.3e-05 M | > 3.3e-05 M | > 3.3e-05 M | 0.185 µM | > 3.3e-05 M | > 3.3e-05 M
Cn1nc(CN2CCCCC2)c2c1COCCCCn1c(C(=O)O)c(CCCOc3cccc4ccccc34)c3cccc-2c31 (racemic) [Example 332, (rac)-1-methyl-7-[3-(naphthalen-1-yloxy)propyl]-3-(piperidin-1-ylmethyl)-1,10,11,12,13,15-hexahydropyrazolo[4′,3′:9,10][1,6]oxazacycloundecino[8,7,6-hi]indole-8-carboxylic Acid] | 18.9 µM | > 33 µM | 2.02e-05 M | > 3.3e-05 M | 9.13e-06 M | 0.203 µM | > 3.3e-05 M | 1.94e-05 M
Cn1nc(CN2CCCC2)c2c1COCCCCn1c(C(=O)O)c(CCCOc3cccc4ccccc34)c3cccc-2c31 (racemic) [Example 335, (rac)-1-methyl-7-[3-(naphthalen-1-yloxy)propyl]-3-(pyrrolidin-1-ylmethyl)-1,10,11,12,13,15-hexahydropyrazolo[4′3′:9,10][1,6]oxazacycloundecino[8,7,6-hi]indole-8-carboxylic Acid] | 27.2 µM | > 33 µM | 2.24e-05 M | 2.35e-05 M | 1.93e-05 M | 0.18 µM | 2.77e-05 M | 2.57e-05 M
Cn1nc(CN)c2c1COCCCCn1c(C(=O)O)c(CCCOc3cccc4ccccc34)c3cccc-2c31 (racemic) [Example 338, (rac)-3-(aminomethyl)-1-methyl-7-[3-(naphthalen-1-yloxy)propyl]-1,10,11,12,13,15-hexahydropyrazolo[4′,3′:9,10][1,6]oxazacycloundecino[8,7,6-hi]indole-8-carboxylic Acid] | > 33 µM | > 33 µM | > 3.3e-05 M | > 3.3e-05 M | > 3.3e-05 M | 0.048 µM | > 3.3e-05 M | > 3.3e-05 M
CC(=O)NCc1nn(C)c2c1-c1cccc3c(CCCOc4cccc5ccccc45)c(C(=O)O)n(c13)CCCCOC2 (racemic) [Example 339, (rac)-3-[(acetylamino)methyl]-1-methyl-7-[3-(naphthalen-1-yloxy)propyl]-1,10,11,12,13,15-hexahydropyrazolo[4′,3′:9,10][1,6]oxazacycloundecino[8,7,6-hi]indole-8-carboxylic Acid] | > 33 µM | > 33 µM | > 3.3e-05 M | > 3.3e-05 M | > 3.3e-05 M | 0.032 µM | > 3.3e-05 M | > 3.3e-05 M
